Test results published in US20200270233A1, “DHFR INHIBITORS, COMPOSITIONS, AND METHODS RELATED THERETO” (Vyera Pharmaceuticais LLC, priority 2017, published 2020).
Where two headings read alike, the source gives them in different places.

Legend:
L. major DHFR (lmDHFR) = L. major DHFR (lmDHFR) (Leishmania major, UniProt P07382); assay: biochemical
hDHFR = molecular target: T1, hDHFR (Homo sapiens, UniProt P00374); assay type: biochemical; conditions: pIC50 = -log10 IC50, at least three replicates, read-out: hDHFR pIC50-DHFR primary assay (converted)
T1 sequence (P00374 1-187): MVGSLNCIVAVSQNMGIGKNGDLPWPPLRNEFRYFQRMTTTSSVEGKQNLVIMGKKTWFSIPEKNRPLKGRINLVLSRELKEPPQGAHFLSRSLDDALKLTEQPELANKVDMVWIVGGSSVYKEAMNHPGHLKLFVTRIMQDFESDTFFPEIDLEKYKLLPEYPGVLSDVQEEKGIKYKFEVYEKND

T. gondii DHFR (tgDHFR) = molecular target: T2, T. gondii DHFR (tgDHFR) (Toxoplasma gondii, UniProt Q07422); assay: biochemical; conditions: for Average DHFR selectivity (h/tg): hDHFR IC50/tgDHFR IC50
T2 sequence (Q07422 1-610): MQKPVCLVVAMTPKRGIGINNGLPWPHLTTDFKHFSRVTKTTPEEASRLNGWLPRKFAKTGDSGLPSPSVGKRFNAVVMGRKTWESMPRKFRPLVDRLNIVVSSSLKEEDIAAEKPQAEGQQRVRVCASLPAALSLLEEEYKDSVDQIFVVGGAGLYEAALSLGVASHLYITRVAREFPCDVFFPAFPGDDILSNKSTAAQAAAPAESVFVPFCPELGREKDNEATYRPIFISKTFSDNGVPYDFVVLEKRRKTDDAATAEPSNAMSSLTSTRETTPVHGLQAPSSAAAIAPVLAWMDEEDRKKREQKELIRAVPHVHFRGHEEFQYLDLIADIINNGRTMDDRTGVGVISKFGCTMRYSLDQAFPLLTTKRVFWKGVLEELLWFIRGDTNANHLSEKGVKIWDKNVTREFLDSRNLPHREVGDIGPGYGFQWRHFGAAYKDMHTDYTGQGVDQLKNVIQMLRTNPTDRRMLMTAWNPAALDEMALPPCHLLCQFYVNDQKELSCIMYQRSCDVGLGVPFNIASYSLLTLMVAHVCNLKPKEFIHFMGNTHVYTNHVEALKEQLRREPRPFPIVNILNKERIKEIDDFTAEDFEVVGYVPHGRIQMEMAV

T. cruzi DHFR (tcDHFR) = T. cruzi DHFR (tcDHFR) (Trypanosoma cruzi, UniProt Q27793); assay: biochemical; conditions: Table 17; for Average DHFR selectivity (h/tc): hDHFR IC50/tcDHFR IC50; for IC50: pIC50 = -log10 IC50, at least three replicates, read-out: tcDHFR pIC50-DHFR primary assay (converted)
T. cruzi DHFR (tcDHFR), sequence (Q27793 whole entry): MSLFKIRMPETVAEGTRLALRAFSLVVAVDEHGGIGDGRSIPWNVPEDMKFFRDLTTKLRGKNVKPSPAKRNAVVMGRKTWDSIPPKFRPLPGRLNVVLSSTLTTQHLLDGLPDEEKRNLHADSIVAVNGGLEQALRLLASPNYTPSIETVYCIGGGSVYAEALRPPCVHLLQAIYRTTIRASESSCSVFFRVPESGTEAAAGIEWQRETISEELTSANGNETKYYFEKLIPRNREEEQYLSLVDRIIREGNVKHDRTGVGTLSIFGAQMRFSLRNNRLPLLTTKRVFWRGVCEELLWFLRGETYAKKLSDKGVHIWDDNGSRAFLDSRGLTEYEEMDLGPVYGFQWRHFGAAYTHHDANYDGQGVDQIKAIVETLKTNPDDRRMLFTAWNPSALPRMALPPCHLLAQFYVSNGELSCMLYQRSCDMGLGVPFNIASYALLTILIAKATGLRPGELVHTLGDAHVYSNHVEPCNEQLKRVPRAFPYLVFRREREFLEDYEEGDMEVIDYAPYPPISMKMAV

[1] = molecular target: P. falciparum DHFR (pfDHFR) (Plasmodium falciparum, UniProt P13922); assay type: biochemical; conditions: Table 20; pIC50 = -log10 IC50; at least three replicates
P. falciparum DHFR (pfDHFR) (Plasmodium falciparum, UniProt P13922), sequence (P13922 whole entry R59C/N108S, form open): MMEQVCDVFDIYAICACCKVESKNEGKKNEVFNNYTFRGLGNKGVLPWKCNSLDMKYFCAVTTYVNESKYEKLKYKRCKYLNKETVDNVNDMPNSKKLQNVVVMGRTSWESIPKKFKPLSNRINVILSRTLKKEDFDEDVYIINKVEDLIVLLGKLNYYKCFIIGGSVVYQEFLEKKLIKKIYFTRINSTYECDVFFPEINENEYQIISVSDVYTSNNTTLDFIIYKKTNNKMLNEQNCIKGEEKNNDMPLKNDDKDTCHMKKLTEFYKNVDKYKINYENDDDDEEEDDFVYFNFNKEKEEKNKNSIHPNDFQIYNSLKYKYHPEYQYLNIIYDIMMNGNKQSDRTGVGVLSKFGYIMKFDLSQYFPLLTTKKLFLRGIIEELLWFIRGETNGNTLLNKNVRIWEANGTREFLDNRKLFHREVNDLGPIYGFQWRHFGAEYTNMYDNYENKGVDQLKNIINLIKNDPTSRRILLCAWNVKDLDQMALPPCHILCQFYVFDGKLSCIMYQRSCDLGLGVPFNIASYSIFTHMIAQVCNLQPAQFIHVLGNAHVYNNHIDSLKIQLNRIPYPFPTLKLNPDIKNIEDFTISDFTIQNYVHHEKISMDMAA

[2] = tested on: P. falciparum DHFR (pfDHFR); assay type: biochemical; conditions: Table 20; hDHFR IC50/pfDHFR IC50
[3] = Table 16, pIC50 = -log10 IC50, at least three replicates, read-out: tgDHFR pIC50-DHFR primary assay (converted)

L. major DHFR (lmDHFR), sequence (P07382 whole entry): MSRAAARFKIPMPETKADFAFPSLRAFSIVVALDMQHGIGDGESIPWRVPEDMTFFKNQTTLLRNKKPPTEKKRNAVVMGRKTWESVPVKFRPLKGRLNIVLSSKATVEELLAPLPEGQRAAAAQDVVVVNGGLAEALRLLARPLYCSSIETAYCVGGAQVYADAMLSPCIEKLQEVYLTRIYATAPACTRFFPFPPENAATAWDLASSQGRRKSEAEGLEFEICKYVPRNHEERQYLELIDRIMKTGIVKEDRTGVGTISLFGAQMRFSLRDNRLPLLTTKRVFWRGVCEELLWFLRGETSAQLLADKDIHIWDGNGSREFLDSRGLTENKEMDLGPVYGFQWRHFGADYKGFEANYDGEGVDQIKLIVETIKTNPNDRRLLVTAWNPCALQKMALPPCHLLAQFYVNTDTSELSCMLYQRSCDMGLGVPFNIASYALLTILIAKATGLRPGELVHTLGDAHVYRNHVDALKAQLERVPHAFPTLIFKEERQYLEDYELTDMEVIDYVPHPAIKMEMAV

Structure (SMILES) | IC50 (L. major DHFR (lmDHFR)) | IC50 (hDHFR; Table 19) | Average DHFR selectivity (h/tg) (T. gondii DHFR (tgDHFR); Table 16) | IC50 (T. gondii DHFR (tgDHFR); [3]) | IC50 (hDHFR; Table 16) | IC50 (hDHFR; Table 17) | Average DHFR selectivity (h/tc) (T. cruzi DHFR (tcDHFR)) | IC50 (T. cruzi DHFR (tcDHFR)) | IC50 (T. gondii DHFR (tgDHFR)) | IC50 (hDHFR; Table 20) | pfDHFR pIC50-DHFR primary assay [1] | Average DHFR selectivity (h/pf)* − DHFR IC50 [2] | IC50 (hDHFR; Table 18)
Nc1ncc(N2CCN(c3cccc(-c4cccnn4)c3)CC2)c(N)n1 [Compound 107] | 52.5 nM | 1580 nM | – | – | – | – | – | – | – | – | – | – | –
Nc1ncc(N2CCN(c3cccc(-c4ccnc(F)c4)c3)CC2)c(N)n1 [Compound 90] | 42.7 nM | 1150 nM | – | – | – | – | – | – | – | – | – | – | –
Nc1ncc(N2CCN(c3ccccc3C3=CCOCC3)CC2)c(N)n1 [Compound 193, 5-(4-(2-(3,6-dihydro-2H-pyran-4-yl)phenyl)piperazin-1-yl)pyrimidine-2,4-diamine] | – | – | 10.47 | 87.1 nM | 871 nM | 871 nM | 12.205 | 73.3 nM | – | – | – | – | –
CCCc1nc(N)nc(N)c1N1CCN(c2ccccc2)CC1 [Compound 49, 5-(4-phenylpiperazin-1-yl)-6-propylpyrimidine-2,4-diamine] | – | – | – | – | 9120 nM | – | – | – | 18.2 nM | 11200 nM | 7.85 | 806 | –
Nc1ncc(N2CCN(c3cnc4ccccc4c3)CC2)c(N)n1 [Compound 19, 5-(4-(quinolin-3-yl)piperazin-1-yl)pyrimidine-2,4-diamine] | 3.72 nM | 129 nM | – | – | – | – | – | – | – | – | – | – | –
Nc1ncc(N2CCN(c3ccc(C4CCOCC4)cc3)CC2)c(N)n1 [Compound 173] | – | – | 4.18 | 389 nM | 1620 nM | 610 nM | 30.425 | 20.2 nM | – | – | – | – | –
COc1ncc(-c2cccc(N3CCN(c4cnc(N)nc4N)CC3)c2)cn1 [Compound 78, 5-(4-(3-(2-methoxypyrimidin-5-yl)phenyl)piperazin-1-yl)pyrimidine-2,4-diamine] | – | – | – | – | 1200 nM | – | – | – | 3.24 nM | 912 nM | 9.15 | – | 891 nM
Nc1ncc(C2CCN(c3ccc(C(F)(F)F)nc3)CC2)c(N)n1 [Compound 186] | – | – | 5.18 | 200 nM | 955 nM | 955 nM | 115.7 | 8.41 nM | – | – | – | – | –
Nc1ncc(C2CCN(c3cccc(C4CCOCC4)c3)CC2)c(N)n1 [Compound 178] | – | – | 104.18 | 27.5 nM | 2880 nM | 2880 nM | 30.635 | 95.5 nM | – | – | – | – | –
Nc1ncc(C2=CCN(c3cnc(C(F)(F)F)nc3)CC2)c(N)n1 [Compound 184] | – | – | 3.97 | 851 nM | 3310 nM | 3350 nM | 23.13 | 151 nM | – | – | – | – | –
Cc1ccc(-c2cc(N3CCN(c4cnc(N)nc4N)CC3)ccn2)cc1 [Compound 167] | – | – | 14.56 | 11 nM | 158 nM | 158 nM | 20.1 | 8.04 nM | – | – | – | – | –
Nc1ncc(N2CCN(c3ccnc(C(F)(F)F)c3)CC2)c(N)n1 [Compound 139, 5-(4-(2-(trifluoromethyl)pyridin-4-yl)piperazin-1-yl)pyrimidine-2,4-diamine] | – | – | 2.03 | 39.8 nM | 81.3 nM | 47.9 nM | 8.02 | 6.24 nM | – | – | – | – | –
